Results as given in US9796700B2 (Celgene CAR LLC, priority 2013, dated 2017).

The compounds below were run against Erk1 (Homo sapiens (Human), UniProt P27361) (assay: Protein Mass Modification Assay (intact protein MALDI)).
Type: binding
Procedure: Protein Mass Modification Assay
Intact protein: Erk1 from Millipore (Cat. No. 14-439) was incubated for 60 min. at room temperature with a 10-fold excess of test compound to protein. 4 μL aliquots of the resulting mixture were diluted with 15 μL of 0.2% TFA prior to micro C4 ZipTipping directly onto the MALDI target using sinapinic acid as the desorption matrix (10 mg/ml in 0.1% TFA:Acetonitrile 50:50, v/v). The centroid mass of the target protein in the control sample was compared with the centroid mass of the target protein incubated with compound. A shift in the centroid mass of the treated protein compared to the untreated protein was divided by the molecular weight of the compound. This number corresponds to the percentage of modified protein after one hour incubation. Results from this assay are reported in Table A under the column “ERK1 Mass Mod (%).”

Chain of Erk1 (P27361 whole entry, looked up): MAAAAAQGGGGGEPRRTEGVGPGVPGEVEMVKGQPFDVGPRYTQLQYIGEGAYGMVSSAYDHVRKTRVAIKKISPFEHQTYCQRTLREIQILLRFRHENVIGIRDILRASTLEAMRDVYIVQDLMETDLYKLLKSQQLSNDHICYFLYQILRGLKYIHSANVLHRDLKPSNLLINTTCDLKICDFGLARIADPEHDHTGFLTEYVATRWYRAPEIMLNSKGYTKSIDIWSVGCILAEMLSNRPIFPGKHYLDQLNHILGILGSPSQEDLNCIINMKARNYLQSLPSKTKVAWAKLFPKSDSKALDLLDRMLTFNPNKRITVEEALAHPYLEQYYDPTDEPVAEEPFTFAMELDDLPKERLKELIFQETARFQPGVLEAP

| Compound | ERK1 Mass Mod (%) |
| --- | --- |
| C=CC(=O)N[C@@H]1CCCC[C@H]1Nc1nc(Nc2cc(C(=O)NOCCO)ccc2C)ncc1C(N)=O (racemic) [Compound I-257, Rac-trans-4-((2-acrylamidocyclohexyl)amino)-2-((5-((2-hydroxyethoxy)carbamoyl)-2-methylphenyl)amino)pyrimidine-5-carboxamide] | G (proived a mass modification ≦30%) |
| C=CC(=O)Nc1ccccc1Nc1nc(NC2CCN(C=O)CC2)ncc1C(F)(F)F [Compound I-11, N-(2-((2-((1-formylpiperidin-4-yl)amino)-5-(trifluoromethyl)pyrimidin-4-yl)amino)phenyl)acrylamide] | E (provided a mass modification of ≧70%) |
| CC(=O)N1CCC[C@H](Nc2ncc(C(F)(F)F)c(Nc3ccccc3NC(=O)CCCl)n2)C1 [Compound I-21, (S)—N-(2-((2-((1-Acetylpiperidin-3-yl)amino)-5-(trifluoromethyl)pyrimidin-4-yl)amino)phenyl)-3-chloropropanamide] | F (provided a mass modification of 31-69%) |
| O=C(CCl)Nc1ccccc1Nc1nc(N[C@H]2CCCN(C(=O)CCl)C2)ncc1C(F)(F)F [Compound I-31, (S)-2-Chloro-N-(2-((2-((1-(2-chloroacetyl)piperidin-3-yl)amino)-5-(trifluoromethyl)pyrimidin-4-yl)amino)phenyl)acetamide] | G (proived a mass modification ≦30%) |
| C=CC(=O)N[C@@H]1CCCC[C@H]1Nc1nc(N[C@H]2CCCN(C(=O)CO)C2)ncc1C(F)(F)F [Compound I-32, N-((1R,2R)-2-((2-(((S)-1-(2-hydroxyacetyl)piperidin-3-yl)amino)-5-(trifluoromethyl)pyrimidin-4-yl)amino)cyclohexyl)acrylamide] | F (key: E: provided a mass modification of ≧70%; F: provided a mass modification of 31-69%; G: proived a mass modification ≦30%) |
| C#CC(=O)N[C@@H]1CCCC[C@H]1Nc1nc(N[C@H]2CCCN(C(=O)CO)C2)ncc1C(F)(F)F [Compound I-34, N-((1R,2R)-2-((2-(((S)-1-(2-Hydroxyacetyl)piperidin-3-yl)amino)-5-(trifluoromethyl)pyrimidin-4-yl)amino)cyclohexyl)propiolamide] | F (provided a mass modification of 31-69%) |
| O=C(CCl)N[C@@H]1CCCC[C@H]1Nc1nc(N[C@H]2CCCN(C(=O)CO)C2)ncc1C(F)(F)F [Compound I-35, 2-Chloro-N-((1R,2R)-2-((2-(((S)-1-(2-hydroxyacetyl)piperidin-3-yl)amino)-5-(trifluoromethyl)pyrimidin-4-yl)amino)cyclohexyl)acetamide] | G (proived a mass modification ≦30%) |
| C=CC(=O)Nc1ccccc1Nc1nc(N[C@H]2CCN(C(C)=O)C2)ncc1C(F)(F)F [Compound I-56, (S)—N-(2-((2-((1-Acetylpyrrolidin-3-yl)amino)-5-(trifluoromethyl)pyrimidin-4-yl)amino)phenyl)acrylamide] | F (provided a mass modification of 31-69%) |
| C=CC(=O)Nc1ccccc1Nc1nc(N[C@H]2CCN(C(=O)CO)C2)ncc1C(F)(F)F [Compound I-57, (S)—N-(2-((2-((1-(2-Hydroxyacetyl)pyrrolidin-3-yl)amino)-5-(trifluoromethyl)pyrimidin-4-yl)amino)phenyl)acrylamide] | F (provided a mass modification of 31-69%) |
| C=CC(=O)Nc1ccccc1Nc1nc(Nc2ccc(N3CCOCC3)cc2OC)ncc1C(F)(F)F [Compound I-65, N-(2-((2-((2-Methoxy-4-morpholinophenyl)amino)-5-(trifluoromethyl)pyrimidin-4-yl)amino)phenyl)acrylamide] | E (provided a mass modification of ≧70%) |
| C=CC(=O)Nc1ccccc1Nc1nc(Nc2cc(C(=O)NOC)ccc2OC)ncc1C(F)(F)F [Compound I-67, 3-((4-((2-Acrylamidophenyl)amino)-5-(trifluoromethyl)pyrimidin-2-yl)amino)-N,4-dimethoxybenzamide] | E (provided a mass modification of ≧70%) |

More lines, now with the values ahead:

| ERK1 Mass Mod (%) | Compound |
| --- | --- |
| G (proived a mass modification ≦30%) | C=CC(=O)N[C@@H]1CCCC[C@H]1Nc1nc(Nc2cc(C(=O)NOC)ccc2C)ncc1C(N)=O (racemic) [Compound I-256, Rac-trans-4-((2-acrylamidocyclohexyl)amino)-2-((5-(methoxycarbamoyl)-2-methylphenyl)amino)pyrimidine-5-carboxamide] |
| G (proived a mass modification ≦30%) | C=CC(=O)N[C@@H]1CCCC[C@H]1Oc1nc(Nc2cc(C(N)=O)ccc2C)ncc1C(N)=O (racemic) [Compound I-268, Rac-trans-4-((2-acrylamidocyclohexyl)oxy)-2-((5-carbamoyl-2-methylphenyl)amino)pyrimidine-5-carboxamide] |
| G (proived a mass modification ≦30%) | C=CC(=O)N[C@@H]1CCCC[C@H]1Oc1nc(Nc2cc(C(=O)NOC)ccc2C)ncc1C(N)=O (racemic) [Compound I-269, Rac-trans-4-((2-acrylamidocyclohexyl)oxy)-2-((5-(methoxycarbamoyl)-2-methylphenyl)amino)pyrimidine-5-carboxamide] |
| G (proived a mass modification ≦30%) | C=CC(=O)N[C@@H]1CCCC[C@H]1Oc1nc(Nc2cc(C(N)=O)ccc2C)ncc1Cl (racemic) [Compound I-270, Rac-trans-3-((4-((2-acrylamidocyclohexyl)oxy)-5-chloropyrimidin-2-yl)amino)-4-methylbenzamide] |
| E (provided a mass modification of ≧70%) | C=CC(=O)Nc1ccccc1Nc1nc(NC2CCN(C(C)=O)CC2)ncc1C(F)(F)F [Compound I-12, N-(2-((2-((1-acetylpiperidin-4-yl)amino)-5-(trifluoromethyl)pyrimidin-4-yl)amino)phenyl)acrylamide] |
| G (proived a mass modification ≦30%) | O=C(CCCl)Nc1ccccc1Nc1nc(N[C@H]2CCCN(C(=O)CO)C2)ncc1C(F)(F)F [Compound I-22, (S)-3-Chloro-N-(2-((2-((1-(2-hydroxyacetyl)piperidin-3-yl)amino)-5-(trifluoromethyl)pyrimidin-4-yl)amino)phenyl)propanamide] |
| G (proived a mass modification ≦30%) | CC(=O)N1CCC[C@H](Nc2ncc(C(F)(F)F)c(Nc3ccccc3NC(=O)CCl)n2)C1 [Compound I-30, (S)—N-(2-((2-((1-Acetylpiperidin-3-yl)amino)-5-(trifluoromethyl)pyrimidin-4-yl)amino)phenyl)-2-chloroacetamide] |
| E (provided a mass modification of ≧70%) | C=CC(=O)Nc1ccc(C)cc1Nc1nc(NC2CCC(=O)CC2)ncc1C(F)(F)F [Compound I-39, N-(4-Methyl-2-((2-((4-oxocyclohexyl)amino)-5-(trifluoromethyl)pyrimidin-4-yl)amino)phenyl)acrylamide] |
| E (provided a mass modification of ≧70%) | C=CC(=O)Nc1ccccc1Nc1nc(N[C@H]2CCCN(C(=O)C(C)=O)C2)ncc1C(F)(F)F [Compound I-49, (S)—N-(2-((2-((1-(2-Oxopropanoyl)piperidin-3-yl)amino)-5-(trifluoromethyl)pyrimidin-4-yl)amino)phenyl)acrylamide] |
| E (provided a mass modification of ≧70%) | C=CC(=O)Nc1ccccc1Nc1nc(N[C@H]2CCCN(C(=O)[C@@H](O)CO)C2)ncc1C(F)(F)F [Compound I-50, N-(2-((2-(((S)-1-((S)-2,3-Dihydroxypropanoyl)piperidin-3-yl)amino)-5-(trifluoromethyl)pyrimidin-4-yl)amino)phenyl)acrylamide] |
| E (provided a mass modification of ≧70%) | C=CC(=O)Nc1ccccc1Nc1nc(N[C@H]2CCCN(C(=O)[C@H](O)CO)C2)ncc1C(F)(F)F [Compound I-51, N-(2-((2-(((S)-1-((R)-2,3-Dihydroxypropanoyl)piperidin-3-yl)amino)-5-(trifluoromethyl)pyrimidin-4-yl)amino)phenyl)acrylamide] |
| E (provided a mass modification of ≧70%) | C=CC(=O)Nc1ccccc1Nc1nc(N[C@H]2CCCN(C(=O)C=O)C2)ncc1C(F)(F)F [Compound I-52, (S)—N-(2-((2-((1-(2-Oxoacetyl)piperidin-3-yl)amino)-5-(trifluoromethyl)pyrimidin-4-yl)amino)phenyl)acrylamide] |
| E (provided a mass modification of ≧70%) | C=CC(=O)Nc1ccccc1Nc1nc(N[C@H]2CCN(S(C)(=O)=O)C2)ncc1C(F)(F)F [Compound I-58, (S)—N-(2-((2-((1-(Methylsulfonyl)pyrrolidin-3-yl)amino)-5-(trifluoromethyl)pyrimidin-4-yl)amino)phenyl)acrylamide] |
| E (provided a mass modification of ≧70%) | C=CC(=O)Nc1ccccc1Nc1nc(N[C@H]2CCN(C(=O)OC)C2)ncc1C(F)(F)F [Compound I-59, (S)-methyl 3-((4-((2-Acrylamidophenyl)amino)-5-(trifluoromethyl)pyrimidin-2-yl)amino)pyrrolidine-1-carboxylate] |
| E (provided a mass modification of ≧70%) | C=CC(=O)Nc1ccccc1Nc1nc(N[C@@H]2CCN(C(C)=O)C2)ncc1C(F)(F)F [Compound I-60, (R)—N-(2-((2-((1-Acetylpyrrolidin-3-yl)amino)-5-(trifluoromethyl)pyrimidin-4-yl)amino)phenyl)acrylamide] |
| E (provided a mass modification of ≧70%) | C=CC(=O)Nc1ccccc1Nc1nc(Nc2cc(C(=O)NOC)ccc2C#N)ncc1C(F)(F)F [Compound I-72, 3-((4-((2-Acrylamidophenyl)amino)-5-(trifluoromethyl)pyrimidin-2-yl)amino)-4-cyano-N-methoxybenzamide] |
